# Legend:
# Assay type in all cases: physicochemical
# [1] = Compressibility, maximum density at constant pressure of 0.2 MPa (TA-XT2 Texture analyser); conditions: 0.2 MPa per step, 10 steps
# Description: As used herein, and unless indicated otherwise, the term “compressibility” is expressed as maximum density at constant pressure of 0.2 MPa.
# Compression profiles were obtained using a die and a flat-faced punch fitted on a TA-XT2 Texture analyser (Stable Micro Systems Ltd., Godalming, UK).
# 200 mg of micronized crystalline form E of Sofosbuvir obtained according to example 8 is compressed in a steel mould (with the rate of displacement 0.03 mm/s). Cyclic procedure (similar to tapping) was performed: compressing, then retracting, relaxation for 15 s and then repeated compressive steps (altogether 10 steps). Each step exerts 0.2 MPa pressure on to the sample. Sample density is calculated by dividing the weight by the sample volume for each cycle. Maximum density is reached within 10 steps. The maximal compressive displacement was 0.5 mm. The resulting density was: 0.48 g/ml
# [2] = DVS water vapor sorption (hygroscopicity); conditions: for critical relative humidity in the sorption curve at which the rate of water uptake changes (inflection point): DVS sorption curve; for Change in Mass (%): 25° C.
# Description: The improved hygroscopic properties discussed herein above may be expressed by the dynamic water uptake monitored by the DVS instrument. The profile of the dynamic curve obtained may provide insight on the tendency of the substance to deliquescence. […] This behavior indicates a long-term possibility of the stored powder to stick and form lumps.
# DVS measurements were performed SMS DVS instrument
# Humidity range: 0%-90%-0% cycle. […]
# minimum step duration: 60 min maximum step duration: 720 min
# [3] = Solubility at 37° C. by UHPLC/UV; conditions: for solubility at 15 min / solubility at 1 h: 37 °C, thermodynamic from solid
# Description: (§1) Sofosbuvir form 6 prepared according to example 18 above and Sofosbuvir form 7 prepared according to example 16 above was used.
# The solubility was determined as follows:
# 100 mg test substance was weighed into a glass vial, followed by addition of 4 mL solvent (water, 0.01 M HCl, 20 mM sodium acetate/acetic acid [pH 4.5], 50 mM KH2PO4 [pH 6.8]). A stirring bar was added, the vial was fixed in a block heater at 37° C. and the suspension was stirred with 250 rpm. After 15 min and 1 h, samples were withdrawn and filtered through a 0.2 μm PTFE filter. 100 μL of the clear filtrate were diluted with 900 μL acetonitrile/water mixture (1:1) and 1 μL thereof was analyzed by UHPLC/UV:
# Instrument: Agilent 1290 Infinity
# Column: Phenomenex Kinetex XB—C18, 1.7 μm, 50×3 mm
# Solvent A: water+0.2% Formic acid+0.1% HFBA […] heptafluorobutyric acid)
# [4] = Dissolution, USP apparatus II, paddle method; conditions: pH 6.8, after 5 minutes
# Description: Sofosbuvir form 6 prepared according to example 18 above and Sofosbuvir form 7 prepared according to example 16 above was used. The dissolution of Sofosbuvir Form 7 and Form 6 was measured (in triplicate) in 50 mM phosphate buffer at 37° C. (pH 6.8, 900 mL), using USP apparatus II, paddle method. Every 5 minutes, a probe was taken and measured by UV/VIS at 260 nm and path length 0.1 cm; UV/VIS was measured on an Agilent model 8453 with Chem Station Dissolution Software. 400 mg of Sofosbuvir Form 7 or Form 6 was used for the test, and the percentages are given in relation to 400 mg of the API. The results are represented graphically in FIG. 13.
# [5] = Particle size distribution by laser diffractometry (Mastersizer 2000, wet measurement); conditions: silicone oil
# Description: If a wet measurement is used the particles to be measured are dispersed in a dispersant, preferably a dispersant having a refractive index (RI) of 1.403, and the measurement is carried out at 2000 rpm and ultrasound for 120 s prior to measurement. Preferably, unless otherwise indicated the particle size distribution is determined using a wet measurement using a Mastersizer 2000 from Malvern Instruments and Malvern Hydro 2000S wet sample dispersion unit and silicone oil as dispersant. Unless otherwise indicated, the following settings are preferably used:
# as §1
# The particle size distribution was determined using a wet measurement using a Mastersizer 2000 from Malvern Instruments and Malvern Hydro 2000S wet sample dispersion unit and silicone oil as dispersant.
# [6] = Propensity to become electrostatically charged
# [7] = Storage stability of the solid form
structure (smiles),measurement,setting,value
"CC(C)OC(=O)[C@H](C)NP(=O)(OC[C@H]1O[C@@H](n2ccc(=O)[nH]c2=O)[C@](C)(F)[C@@H]1O)Oc1ccccc1 (stereo partly drawn) [(2S)-isopropyl 2-(((((2R,3R,4R,5R)-5-(2,4-dioxo-3,4-dihydropyrimidin-1(2H)-yl)-4-fluoro-3-hydroxy-4-methyltetrahydrofuran-2-yl)methoxy)(phenoxy)phosphoryl)amino)propanoate]",resulting density (compressibility),[1],0.48 g/mL
"CC(C)OC(=O)[C@H](C)NP(=O)(OC[C@H]1O[C@@H](n2ccc(=O)[nH]c2=O)[C@](C)(F)[C@@H]1O)Oc1ccccc1 (stereo partly drawn) [Form 1, (2S)-isopropyl 2-(((((2R,3R,4R,5R)-5-(2,4-dioxo-3,4-dihydropyrimidin-1(2H)-yl)-4-fluoro-3-hydroxy-4-methyltetrahydrofuran-2-yl)methoxy)(phenoxy)phosphoryl)amino)propanoate]",critical relative humidity in the sorption curve at which the rate of water uptake changes (inflection point),[2],about 80 % RH
same,water uptake,"[2]; DVS, above 80% RH",about 5%
same,Change in Mass (%),"[2]; DVS, relative humidity 70%",0.13%
same,Change in Mass (%),"[2]; DVS, relative humidity 90%",5.57%
"CC(C)OC(=O)[C@H](C)NP(=O)(OC[C@H]1O[C@@H](n2ccc(=O)[nH]c2=O)[C@](C)(F)[C@@H]1O)Oc1ccccc1 (stereo partly drawn) [Form 7, (2S)-isopropyl 2-(((((2R,3R,4R,5R)-5-(2,4-dioxo-3,4-dihydropyrimidin-1(2H)-yl)-4-fluoro-3-hydroxy-4-methyltetrahydrofuran-2-yl)methoxy)(phenoxy)phosphoryl)amino)propanoate]",solubility at 15 min,"[3]; 0.01 M HCl, pH 2, simulated gastric fluid, 15 min",3200 µg/mL
same,solubility at 1 h,"[3]; 0.01 M HCl, pH 2, simulated gastric fluid, 1 h",3200 µg/mL
same,solubility at 15 min,"[3]; 20 mM sodium acetate/acetic acid buffer, pH 4.5, aqueous buffer, 20 mM NaOAc/HOAc (pH 4.5), 15 min",3100 µg/mL
same,solubility at 1 h,"[3]; 20 mM sodium acetate/acetic acid buffer, pH 4.5, aqueous buffer, 20 mM NaOAc/HOAc (pH 4.5), 1 h",3100 µg/mL
same,solubility at 15 min,"[3]; 50 mM KH2PO4 buffer, pH 6.8, aqueous buffer, 50 mM KH2PO4 (pH 6.8), 15 min",3200 µg/mL
same,solubility at 1 h,"[3]; 50 mM KH2PO4 buffer, pH 6.8, aqueous buffer, 50 mM KH2PO4 (pH 6.8), 1 h",3000 µg/mL
same,solubility compared with the solubility of Form 6,"[3]; physiologically relevant solvents, after 15 min and after 1 hour",approximately one third higher
same,solubility at 15 min,"[3]; water, 15 min",3100 µg/mL
same,solubility at 1 h,"[3]; water, 1 h",3100 µg/mL
same,solubility (percent dissolved),[4],≥ 65%
"CC(C)OC(=O)[C@H](C)NP(=O)(OC[C@H]1O[C@@H](n2ccc(=O)[nH]c2=O)[C@](C)(F)[C@@H]1O)Oc1ccccc1 (stereo partly drawn) [Form 6, (2S)-isopropyl 2-(((((2R,3R,4R,5R)-5-(2,4-dioxo-3,4-dihydropyrimidin-1(2H)-yl)-4-fluoro-3-hydroxy-4-methyltetrahydrofuran-2-yl)methoxy)(phenoxy)phosphoryl)amino)propanoate]",Particle size D10,[5],2.0 μm
same,Particle size D50,[5],8.2 μm
same,Particle size D90,[5],22.9 μm
same,propensity to become electrostatically charged,[6],high propensity to become electrostatically charged
same,critical relative humidity in the sorption curve at which the rate of water uptake changes (inflection point),[2],about 70 % RH
same,water uptake,"[2]; DVS, above 70% RH",about 1%
same,Change in Mass (%),"[2]; DVS, relative humidity 70%",0.14%
same,Change in Mass (%),"[2]; DVS, relative humidity 90%",1.08%
same,Solubility,"[3]; 0.01 M HCl, 15 min",2500 µg/mL
same,Solubility,"[3]; 0.01 M HCl, 1 h",2400 µg/mL
same,Solubility,"[3]; 20 mM NaOAc/HOAc (pH 4.5), 15 min",2400 µg/mL
same,Solubility,"[3]; 20 mM NaOAc/HOAc (pH 4.5), 1 h",2500 µg/mL
same,Solubility,"[3]; 50 mM KH2PO4 (pH 6.8), 15 min",2300 µg/mL
same,Solubility,"[3]; 50 mM KH2PO4 (pH 6.8), 1 h",2300 µg/mL
same,Solubility,"[3]; water, 15 min",2400 µg/mL
same,Solubility,"[3]; water, 1 h",2300 µg/mL
"CC(C)OC(=O)[C@H](C)NP(=O)(OC[C@H]1O[C@@H](n2ccc(=O)[nH]c2=O)[C@](C)(F)[C@@H]1O)Oc1ccccc1 (stereo partly drawn) [Form E, (2S)-isopropyl 2-(((((2R,3R,4R,5R)-5-(2,4-dioxo-3,4-dihydropyrimidin-1(2H)-yl)-4-fluoro-3-hydroxy-4-methyltetrahydrofuran-2-yl)methoxy)(phenoxy)phosphoryl)amino)propanoate]",stable for,[7]; at 25 degrees,at least 3 months
same,stable for,[7]; at 40 degrees,at least 3 months
same,hysteresis between the desorption and the absorption isotherm,[2]; DVS,doesn't exhibit any hysteresis
same,critical relative humidity in the sorption curve at which the rate of water uptake changes (inflection point),[2],does not show this inflection point
same,Change in Mass (%),"[2]; DVS, relative humidity 70%",0.07%
same,Change in Mass (%),"[2]; DVS, relative humidity 90%",0.12%

# — US10214553B2, “Solid state forms of sofosbuvir” (ratiopharm GmbH, priority 2014, dated 2019)
